The data set can be described thus: Solubility properties of the water soluble polar solvents (nitrapyrin solubility, water solubility). The following applies: water solubility of the polar solvent.

With `COC(C)COC(C)CO` (stereo not shown) [Dowanol DPM, dipropylene glycol monomethyl ether], the water solubility is listed as 100%.
